Results reported in ChEMBL document CHEMBL5726023, “Fused azaheterocyclic compounds and their use as AMPA receptor modulators” (2018).

Experiment: Calcium Flux Assay: An in vitro assay was used to determine the potency of test compounds as inhibitors of the glutamate response of the channel formed by GluA1o-γ8. To ensure a 1:1 stoichiometry of GluA1o and γ8 subunits in the expressed channel, a fusion of the cDNAs for GRIA1o and CACNG8 was used. Following Shi et al (2009) The stoichiometry of AMPA receptors and TARPs varies by neuronal cell type. Neuron 62(5): 633-640), the C-terminus of the cDNA for GRIA1o was fused to the N-terminus of the cDNA for γ8. The linker sequence was QQQQQQQQQQEFAT. Channels expressed with this construct appear to have similar properties to channels formed by co-expression of GRIA1o with an excess of CACNG8 (Shi et al. 2009). A clonal cell line in HEK293 cells stably expressing this construct, with a geneticin selection marker, was generated for use in this assay.Cell expressing the GRIA1o-CACNG8 fusion construct were grown in a monolayer in 96- or 384-well microtiter plates. They were washed with assay buffer (135 mM NaCl, 4 mM KCl, 3 mM CaCl2, 1 mM MgCl2, 5 mM glucose, 10 mM HEPES, pH 7.4, 300 mOs) using a Biotek EL405 plate washer. The cells were then loaded with a calcium-sensitive dye (Calcium-5 or Calcium-6, Molecular Devices) and the test compounds at a range of concentrations. […]
Format: cell-based

With `Cc1cc(-c2c(C(F)(F)F)ccn3cc(C(C)C)nc23)cc2cn[nH]c12` as the molecule, how does the IC50 read?
The IC50 was 0.1 nM.
